Assay [1] concerns five different types of fibroblasts. Briefly: ECM production (procollagen, fibronectin ELISA), summary over five types of fibroblasts. Format: cell-based, Human. Particulars: dose-dependent; at clinically relevant concentrations. The source says: In the present example, five different types of fibroblasts, including (1) lung fibroblasts from a patient with idiopathic pulmonary fibrosis (“IPF”), (2) cardiac fibroblasts, (3) dermal (skin) fibroblasts, (4) renal mesangial cells, and (5) the LX2 hepatic stellate cell line, were used to determine the ability of CRV431 in decreasing production of the ECM molecules, collagen and fibronectin.
The extent of inhibition was similar whether or not the cells were stimulated with the profibrotic agent, transforming growth factor-beta (TGFβ), consistent with direct effects on ECM synthesis.

The subject of assay [2] is human precision cut liver slices (PCLS). Briefly: PCLS Sirius red tissue fibrosis, Nonstimulation Protocol. To be noted: 6 days of culture in the absence of exogenous TGFβ+PDGF-BB; most CRV431-treated slices. The format is cell-based. How it is done:
PCLS were obtained from 5 human donors who underwent resection of liver cancer. Replicate slices were collected from healthy margins of the resections and cultured for 4 or 6 days depending on the experimental protocol. In the Nonstimulation Protocol slices were cultured for 6 days and treated for the entire period with DMSO vehicle or 5 μM CRV431. In the Stimulation Protocol slices were rested for 1 day and then administered the cytokines, TGFβ and PDGF-BB, for 3 days to stimulate inflammation and fibrosis. […]
Four types of evaluations were conducted on the PCLS: (a) secretion of inflammation and fibrosis biomarkers into the culture medium, (b) histological staining and quantitation of Sirius red as a measure of tissue fibrosis, (c) gene expression of inflammation and fibrosis biomarkers by RT-PCR, and (d) RNA sequencing (RNA-Seq) of the complete transcriptome. […] ELISAs were used to quantify secretion of monocyte chemoattractant protein (MCP-1), interleukin-6 (IL-6), tissue inhibitor of metalloproteinase-1 (TIMP1), hyaluronic acid, fibronectin, and collagen 1α1. For each donor the mean level of biomarker secretion in each treatment group was expressed as a percentage change relative to DMSO vehicle, the percentages averaged for all donors, and finally the mean daily percentage change calculated from all days of evaluation. […]

On to `CC[C@@H]1NC(=O)[C@H]([C@H](O)[C@H](C)CCCCCCNC(C)=O)N(C)C(=O)[C@H](C(C)C)N(C)C(=O)[C@H](CC(C)C)N(C)C(=O)[C@H](CC(C)C)N(C)C(=O)[C@@H](C)NC(=O)[C@H](C)NC(=O)[C@H](CC(C)C)N(C)C(=O)[C@H](C(C)C)NC(=O)[C@H](CC(C)C)N(C)C(=O)[C@@H](C)N(C)C1=O` [CRV431], for which the “decrease of ECM production” value in assay [1] is reported as “up to 55%”. Moreover, in assay [2], the “tissue fibrosis vs vehicle-treated slices” value is on record as “less fibrosis than vehicle-treated slices”.

Source of the values: patent US12409206B2, “Use of cyclosporine analogues for treating fibrosis” (Hepion Pharmaceuticals, Inc., priority 2020, dated 2025).
